In publication PMC10360057 (2023):

Tests used:
[1] = tested on: RNA 1 (RNA, riboswitch) GGCUGCUUGUCCUUUAAUGGUCCAGUC; experiment: ITC; conditions: K+ 100 mM (KCl), Mg2+ 2 mM (MgCl2); 50 mM MOPS, pH 7.5, 21 °C; two-site fit, site 1 of 2
[2] = tested on: RNA 2 (RNA, riboswitch) CCGGCAUAGCUUGUCCUUUAAUGGUCCUAUGUCGAAAAUG; experiment: ITC; conditions: K+ 100 mM (KCl), Mg2+ 2 mM (MgCl2); 50 mM MOPS, pH 7.5, 21 °C; two-site fit, site 1 of 2
[3] = tested on: RNA 1 (RNA, riboswitch) GGCUGCUUGUCCUUUAAUGGUCCAGUC; experiment: native ESI MS; conditions: 9:1 H2O/CH3OH, 0.25 mM piperazine
[4] = tested on: RNA 2 (RNA, riboswitch) CCGGCAUAGCUUGUCCUUUAAUGGUCCUAUGUCGAAAAUG; experiment: competitive native ESI MS; conditions: NH4+ 50 mM (ammonium bicarbonate); 9:1 H2O/CH3OH, 0.25 mM piperazine, pH ~7.5, 21 °C; RNA 1 as competing reference; overall, motifs A and B
[5] = tested on: RNA 3 (RNA, riboswitch) CCGUCAUAGCUUGUCCUUUAAUGGUCCUAUGACGAAAAUG; experiment: competitive native ESI MS; conditions: NH4+ 50 mM (ammonium bicarbonate); 9:1 H2O/CH3OH, 0.25 mM piperazine, pH ~7.5, 21 °C; RNA 1 as competing reference; overall, motifs A and B
[6] = tested on: RNA 4 (RNA, riboswitch) CCCUGAUAGCUUGUCCUUUAAUGGUCCUAUCUGGAAAAUG; experiment: competitive native ESI MS; conditions: NH4+ 50 mM (ammonium bicarbonate); 9:1 H2O/CH3OH, 0.25 mM piperazine, pH ~7.5, 21 °C; RNA 1 as competing reference; overall, motifs A and B

Row | KD [1] [nM] | KD [2] [nM] | KD ([3]; NH4+ 50 mM (ammonium bicarbonate), pH 7.5, 21 °C, single-site model) [nM] | KD [4] [nM] | KD [5] [nM] | KD [6] [nM] | KD ([3]; none added, pH ~6, room temperature, 1 μM RNA, 10 μM paromomycin) [nM] | SMILES
1 | 2 ± 2 | 400 ± 600 | 700 ± 200 | 500 ± 200 | 500 ± 200 | 500 ± 200 |  | NC[C@@H]1O[C@H](O[C@H]2[C@@H](O)[C@H](O[C@@H]3[C@@H](O)[C@H](N)C[C@H](N)[C@H]3O[C@H]3O[C@H](CN)[C@@H](O)[C@H](O)[C@H]3N)O[C@@H]2CO)[C@H](N)[C@@H](O)[C@@H]1O
2 |  |  |  |  |  |  | 4600 ± 1400 | NC[C@@H]1O[C@H](O[C@H]2[C@@H](O)[C@H](O[C@@H]3[C@@H](O)[C@H](N)C[C@H](N)[C@H]3O[C@H]3O[C@H](CO)[C@@H](O)[C@H](O)[C@H]3N)O[C@@H]2CO)[C@H](N)[C@@H](O)[C@@H]1O
